EC50 data for 19 molecules are collected here from patent US12643882B2, “Inhibitors of human respiratory syncytial virus and metapneumovirus” (priority 2022, dated 2026).

Read-outs that look alike come from different tables or passages of the source.

In one assay the test system is hMPV-GFP virus. The assay is described as follows: microbe, parasite or virus in culture. Format: cell-based, human metapneumovirus. A digest of the protocol:
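Antiviral IC50 was derived from imaging counts of GFP-expressing cells, with CC50 from a same-well CellTiter-Glo read, both by 4-parameter logistic fitting. VERO cells plus hMPV-GFP (MOI 1.25) were exposed 48 h at 37 °C to 10-point 3-fold compound dilutions (typical final 40,300–2 nM).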

For another assay, the system named is RSV-A2-GFP virus. Nature of the assay: microbe, parasite or virus in culture. Format: cell-based, Human Respiratory Syncytial Virus. A digest of the protocol:
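IC50 (GFP-expressing cell counts by Acumen imaging) and CC50 (same-well CellTiter-Glo) were obtained by 4-parameter logistic fitting. Compounds were tested in 10-point 3-fold series for 96 h at 37° C, 5% CO2. Thawed Calu-1 ARF cells were infected at MOI 1.2 with GFP-reporter RSV-A2 in 2% FBS DMEM.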

The mark [1] stands for this setting: VERO cells infected with hMPV-GFP, 48 hrs, GFP-expressing cells counted, read-out: hMPV EC50.
[2] abbreviates: Calu-1 cells infected with RSV-A2-GFP, 96 hrs, GFP-expressing cells counted, read-out: RSV EC50.

Turning to `Cc1nc(-c2ncccn2)sc1C(=O)N1C[C@@H]2[C@H](C1)[C@H]2Oc1cc(C(C)(C)N)cc(-c2cc(F)c(F)c(F)c2)n1` [Example 13, ((1R,5S,6s)-6-((4-(2-aminopropan-2-yl)-6-(3,4,5-trifluorophenyl)pyridin-2-yl)oxy)-3-azabicyclo[3.1.0]hexan-3-yl)(4-methyl-2-(pyrimidin-2-yl)thiazol-5-yl)methanone], the EC50 with hMPV-GFP virus (human metapneumovirus, Vero, 48 h, read-out: hMPV EC50, VERO cells infected with hMPV-GFP, 48 hrs, GFP-expressing cells counted) was 0.01 to 0.1 µM; in the assay with RSV-A2-GFP virus (human respiratory syncytial virus, Calu-1, 96 h, read-out: RSV EC50, Calu-1 cells infected with RSV-A2-GFP, 96 hrs, GFP-expressing cells counted), < 0.01 µM.
On to `Cc1nc(-c2ncccn2)sc1C(=O)N1C[C@@H]2[C@H](C1)[C@H]2Oc1cc(C(C)(C)N)cc(-c2ccc(F)c(F)c2F)n1` [Example 14, ((1R,5S,6s)-6-((4-(2-aminopropan-2-yl)-6-(2,3,4-trifluorophenyl)pyridin-2-yl)oxy)-3-azabicyclo[3.1.0]hexan-3-yl)(4-methyl-2-(pyrimidin-2-yl)thiazol-5-yl)methanone], for which the EC50 with hMPV-GFP virus (setting [1]) was 0.01 to 0.1 µM; with RSV-A2-GFP virus (setting [2]), < 0.01 µM.
Turning to `Cc1nc(-c2ncccn2)sc1C(=O)N1C[C@@H]2[C@H](C1)[C@H]2Oc1cc(C(C)(C)N)cc(-c2cccc(F)c2)n1` [Example 16, ((1R,5S,6s)-6-((4-(2-aminopropan-2-yl)-6-(3-fluorophenyl)pyridin-2-yl)oxy)-3-azabicyclo[3.1.0]hexan-3-yl)(4-methyl-2-(pyrimidin-2-yl)thiazol-5-yl)methanone], the results for the EC50 with hMPV-GFP virus (setting [1]) and in the assay with RSV-A2-GFP virus (setting [2]) were 0.01 to 0.1 µM and < 0.01 µM, respectively.
For `Cc1nc(-c2ncccn2)sc1C(=O)N1C[C@@H]2[C@H](C1)[C@H]2Oc1cc(C(C)(C)N)cc(-c2ccc(F)c(Cl)c2)n1` [Example 17, ((1R,5S,6s)-6-((4-(2-aminopropan-2-yl)-6-(3-chloro-4-fluorophenyl)pyridin-2-yl)oxy)-3-azabicyclo[3.1.0]hexan-3-yl)(4-methyl-2-(pyrimidin-2-yl)thiazol-5-yl)methanone], the EC50 with hMPV-GFP virus (setting [1]) is 0.01 to 0.1 µM; in the assay on RSV-A2-GFP virus (setting [2]), < 0.01 µM.
Turning to `Cc1nc(-c2ncccn2)sc1C(=O)N1C[C@@H]2[C@H](C1)[C@H]2Oc1cc(C(C)(C)N)cc(-c2ccc(Cl)c(F)c2)n1` [Example 18, ((1R,5S,6s)-6-((4-(2-aminopropan-2-yl)-6-(4-chloro-3-fluorophenyl)pyridin-2-yl)oxy)-3-azabicyclo[3.1.0]hexan-3-yl)(4-methyl-2-(pyrimidin-2-yl)thiazol-5-yl)methanone], the EC50 was 0.01 to 0.1 µM with hMPV-GFP virus (setting [1]) and < 0.01 µM in the assay on RSV-A2-GFP virus (setting [2]).
As to `Cc1nc(-c2ncccn2)sc1C(=O)N1C[C@@H]2[C@H](C1)[C@H]2Oc1cc(C(C)(C)N)cc(-c2ccc(Cl)cc2)n1` [Example 19, ((1R,5S,6s)-6-((4-(2-aminopropan-2-yl)-6-(4-chlorophenyl)pyridin-2-yl)oxy)-3-azabicyclo[3.1.0]hexan-3-yl)(4-methyl-2-(pyrimidin-2-yl)thiazol-5-yl)methanone], the EC50 in the assay on hMPV-GFP virus (setting [1]) and in the assay with RSV-A2-GFP virus (setting [2]) was < 0.01 µM in each case.
On to `Cc1nc(-c2ncccn2)sc1C(=O)N1C[C@@H]2[C@H](C1)[C@H]2Oc1cc(C(C)(C)N)cc(-c2ccccc2)n1` [Example 20, ((1R,5S,6s)-6-((4-(2-aminopropan-2-yl)-6-phenylpyridin-2-yl)oxy)-3-azabicyclo[3.1.0]hexan-3-yl)(4-methyl-2-(pyrimidin-2-yl)thiazol-5-yl)methanone], for which the EC50 is > 0.1 µM in the assay on hMPV-GFP virus (setting [1]) and < 0.01 µM in the assay with RSV-A2-GFP virus (setting [2]).
The corresponding values for `Cc1nc(-c2ncccn2)sc1C(=O)N1C[C@@H]2[C@H](C1)[C@H]2Oc1cc(C(C)(C)N)cc(-c2ccc(C3CC3)cc2)n1` [Example 22, ((1R,5S,6s)-6-((4-(2-aminopropan-2-yl)-6-(4-cyclopropylphenyl)pyridin-2-yl)oxy)-3-azabicyclo[3.1.0]hexan-3-yl)(4-methyl-2-(pyrimidin-2-yl)thiazol-5-yl)methanone] are > 0.1 µM and < 0.01 µM.
For `Cc1nc(-c2ncccn2)sc1C(=O)N1C[C@@H]2[C@H](C1)[C@H]2Oc1cc(C(C)(C)N)cc(-c2ccc(C#N)cc2)n1` [Example 23, 4-(4-(2-aminopropan-2-yl)-6-(((1R,5S,6s)-3-(4-methyl-2-(pyrimidin-2-yl)thiazole-5-carbonyl)-3-azabicyclo[3.1.0]hexan-6-yl)oxy)pyridin-2-yl)benzonitrile], the values for the concentration giving a half-maximal response (EC50) in the assay with hMPV-GFP virus (setting [1]) and with RSV-A2-GFP virus (setting [2]) were > 0.1 µM and < 0.01 µM, respectively.
Regarding `Cc1nc(-c2ncccn2)sc1C(=O)N1C[C@@H]2[C@H](C1)[C@H]2Oc1cc(C(C)(C)N)cc(-c2ccc(OC(F)F)cc2)n1` [Example 24, ((1R,5S,6s)-6-((4-(2-aminopropan-2-yl)-6-(4-(difluoromethoxy)phenyl)pyridin-2-yl)oxy)-3-azabicyclo[3.1.0]hexan-3-yl)(4-methyl-2-(pyrimidin-2-yl)thiazol-5-yl)methanone], the concentration for a half-maximal effect (EC50) was 0.01 to 0.1 µM in the assay on hMPV-GFP virus (setting [1]) and < 0.01 µM in the assay with RSV-A2-GFP virus (setting [2]).
As for `Cc1nc(-c2ncccn2)sc1C(=O)N1C[C@@H]2[C@H](C1)[C@H]2Oc1cc(C(C)(C)N)cc(-c2ccc(C(F)F)cc2)n1` [Example 25, ((1R,5S,6s)-6-((4-(2-aminopropan-2-yl)-6-(4-(difluoromethyl)phenyl)pyridin-2-yl)oxy)-3-azabicyclo[3.1.0]hexan-3-yl)(4-methyl-2-(pyrimidin-2-yl)thiazol-5-yl)methanone], the results for the EC50 in the assay on hMPV-GFP virus (setting [1]) and in the assay with RSV-A2-GFP virus (setting [2]) were 0.01 to 0.1 µM and < 0.01 µM, respectively.
`Cc1nc(-c2ncccn2)sc1C(=O)N1C[C@@H]2[C@H](C1)[C@H]2Oc1cc(C(C)(C)N)cc(-c2ccc(C(C)(F)F)cc2)n1` [Example 26, ((1R,5S,6s)-6-((4-(2-aminopropan-2-yl)-6-(4-(1,1-difluoroethyl)phenyl)pyridin-2-yl)oxy)-3-azabicyclo[3.1.0]hexan-3-yl)(4-methyl-2-(pyrimidin-2-yl)thiazol-5-yl)methanone]: the EC50 is 0.01 to 0.1 µM in the assay on hMPV-GFP virus (setting [1]) and < 0.01 µM with RSV-A2-GFP virus (setting [2]).
The corresponding values for `Cc1nc(-c2ncccn2)sc1C(=O)N1C[C@@H]2[C@H](C1)[C@H]2Oc1cc(C(C)(C)N)cc(-c2ccc(C(F)(F)F)cc2)n1` [Example 27, ((1R,5S,6s)-6-((4-(2-aminopropan-2-yl)-6-(4-(trifluoromethyl)phenyl)pyridin-2-yl)oxy)-3-azabicyclo[3.1.0]hexan-3-yl)(4-methyl-2-(pyrimidin-2-yl)thiazol-5-yl)methanone] are 0.01 to 0.1 µM and < 0.01 µM.
The corresponding values for `Cc1nc(-c2ncccn2)sc1C(=O)N1C[C@@H]2[C@H](C1)[C@H]2Oc1cc(C(C)(C)N)cc(-c2ccc(C(F)(F)F)nc2)n1` [Example 28, ((1R,5S,6s)-6-((4-(2-aminopropan-2-yl)-6′-(trifluoromethyl)-[2,3′-bipyridin]-6-yl)oxy)-3-azabicyclo[3.1.0]hexan-3-yl)(4-methyl-2-(pyrimidin-2-yl)thiazol-5-yl)methanone] are 0.01 to 0.1 µM and < 0.01 µM.
In the case of `Cc1nc(-c2ncccn2)sc1C(=O)N1C[C@@H]2[C@H](C1)[C@H]2Oc1cc(C(C)(C)N)cc(-c2ccc(C(F)(F)F)c(Cl)c2)n1` [Example 29, ((1R,5S,6s)-6-((4-(2-aminopropan-2-yl)-6-(3-chloro-4-(trifluoromethyl)phenyl)pyridin-2-yl)oxy)-3-azabicyclo[3.1.0]hexan-3-yl)(4-methyl-2-(pyrimidin-2-yl)thiazol-5-yl)methanone], the results for the EC50 in the assay with hMPV-GFP virus (setting [1]) and in the assay on RSV-A2-GFP virus (setting [2]) were 0.01 to 0.1 µM and < 0.01 µM, respectively.
Regarding `Cc1nc(-c2ncccn2)sc1C(=O)N1C[C@@H]2[C@H](C1)[C@H]2Oc1cc(C(C)(C)N)cc(-c2ccc(C(F)(F)F)cc2Cl)n1` [Example 30, ((1R,5S,6s)-6-((4-(2-aminopropan-2-yl)-6-(2-chloro-4-(trifluoromethyl)phenyl)pyridin-2-yl)oxy)-3-azabicyclo[3.1.0]hexan-3-yl)(4-methyl-2-(pyrimidin-2-yl)thiazol-5-yl)methanone], the EC50 was 0.01 to 0.1 µM with hMPV-GFP virus (setting [1]) and < 0.01 µM in the assay with RSV-A2-GFP virus (setting [2]).
As to `Cc1nc(-c2ncccn2)sc1C(=O)N1C[C@@H]2[C@H](C1)[C@H]2Oc1cc(C(C)(C)N)cc(-c2ccc(C(F)(F)F)c(F)c2F)n1` [Example 31, ((1R,5S,6s)-6-((4-(2-aminopropan-2-yl)-6-(2,3-difluoro-4-(trifluoromethyl)phenyl)pyridin-2-yl)oxy)-3-azabicyclo[3.1.0]hexan-3-yl)(4-methyl-2-(pyrimidin-2-yl)thiazol-5-yl)methanone], the EC50 in the assay on hMPV-GFP virus (setting [1]) was 0.01 to 0.1 µM; in the assay on RSV-A2-GFP virus (setting [2]), < 0.01 µM.
With `Cc1ccc(-c2cc(C(C)(C)N)cc(O[C@H]3[C@@H]4CN(C(=O)c5sc(-c6ncccn6)nc5C)C[C@@H]43)n2)cc1C` [Example 32, ((1R,5S,6s)-6-((4-(2-aminopropan-2-yl)-6-(3,4-dimethylphenyl)pyridin-2-yl)oxy)-3-azabicyclo[3.1.0]hexan-3-yl)(4-methyl-2-(pyrimidin-2-yl)thiazol-5-yl)methanone], the EC50 in the assay on hMPV-GFP virus (setting [1]) was > 0.1 µM; with RSV-A2-GFP virus (setting [2]), < 0.01 µM.
As to `Cc1ccc(-c2cc(C(C)(C)N)cc(O[C@H]3[C@@H]4CN(C(=O)c5sc(-c6ncccn6)nc5C)C[C@@H]43)n2)c(C)c1` [Example 33, ((1R,5S,6s)-6-((4-(2-aminopropan-2-yl)-6-(2,4-dimethylphenyl)pyridin-2-yl)oxy)-3-azabicyclo[3.1.0]hexan-3-yl)(4-methyl-2-(pyrimidin-2-yl)thiazol-5-yl)methanone], the results for the EC50 with hMPV-GFP virus (setting [1]) and in the assay with RSV-A2-GFP virus (setting [2]) were > 0.1 µM and < 0.01 µM, respectively.
